# Laboratory results published in patent US10509046B2, “Detection of indazole synthetic cannabinoids” (Randox Laboratories Limited, priority 2014, dated 2019).
# Structures can show the parent of a compound that is named as a salt.
# Test system: AB-PINACA antibody (raised against immunogen 2 of Example 6)
# Assay: AB-PINACA ELISA, final validated kit with Tracer-2 (Example 10), specificity
# Format: binding
# Conditions: AB-PINACA N-Pentanoic acid = 100
# Description: A microtitre plates was precoated with AB-PINACA antibody (raised against immunogen 2 of Example 6). Pinaca derivative (antigen), if present in the sample competes with the horseradish peroxidase labelled AB-PINACA (enzyme labelled antigen, herein Tracer-2 of Example 8) for a limited number of antibody sites on the microtitre plate. After incubation at room temperature to allow a competition reaction to take place, the microtitre plate was washed to remove excess reagents. The enzyme substrate ([…]) was added. After an incubation period to allow maximum colour development, the colour reaction was stopped by the addition of acid. This produces a colour change from blue to yellow, and the absorbances are read at 450 nm. A standard curve was then constructed to determine the Pinaca derivative's concentration in the sample.
# All reagents were left to reach room temperature (+15 to +25° C.) prior to use. In order to minimise edge effects microtitre plate was sealed with an adhesive plate sealer.
# The assay was performed in duplicate. The following layout was used for a test plate where each box represents 2 wells.
# • a) The following was pipetted into the appropriate wells of the microtitre plate:
# • b) The microtitre plate was gently tapped plate from side to side for a few seconds. • c) The microtitre plate was covered with a plate sealer before incubating for 30 minutes at room temperature (+15 to +25° C.) in the dark. • d) The plate was inverted and the liquid was tapped out. • e) The plate was washed 6 times with diluted wash buffer (ensuring all wells were filled), over a 10-15 minute period. After the final wash the liquid was discarded and the plate was tapped onto lint free tissue paper until completely dry. • f) Immediately after washing, 125 μL of the one shot substrate II solution was pipetted into each well using a multichannel pipette. The microtitre plate was gently tapped from side to side and incubated for (20±2 minutes) at room temperature (+15 to +25° C.) in the dark. • g) The colour reaction was stopped by the addition of 100 μL of stop solution per well. A colour change from blue to yellow should be evident. • h) The optical density was measured at 450 nm within 10 minutes of stopping the colour reaction. The use of a 630 nm filter is recommended as the reference wavelength, if available. Standard Curve and Interpretation of Results • a) The mean absorbance of the standards, controls and samples were calculated. • b) The absorbances of standards against log10 (standard concentration) were plotted. • c) The control and sample concentrations were read from the standard curve. • d) To obtain concentrations for urine samples in ng/mL, the results were multiplied by 3 to take into account the dilution factor. • e) To obtain concentrations for whole blood samples in ng/mL, the results were multiplied by 4 to take into account the dilution factor. • f) It is recommended that a 4 parameter curve fit method is used when generating the standard curve. Limits of Detection
row,SMILES,% Cross-Reactivity [%]
1,CC(C)C(NC(=O)c1nn(CCCC(O)CF)c2ccccc12)C(N)=O (stereo not drawn),24.1
2,CC(C)(C)C(NC(=O)c1nn(CCCCCO)c2ccccc12)C(N)=O (stereo not drawn),15.2
3,CCCCCn1nc(C(=O)NC23CC4CC(CC(O)(C4)C2)C3)c2ccccc21 [3-OH AKB-48],<1
4,CCCCCn1cc(C(=O)NC23CC4CC(CC(O)(C4)C2)C3)c2ccccc21 [3-OH SDB-001],<1
5,"CC(O)CCCn1nc(C(=O)NC(C(N)=O)C(C)C)c2ccccc21 (stereo not drawn) [4-Hydroxypentyl AB-PINACA, 1-(4-hydroxypentyl) AB-Pinaca]",85.2
6,CC(C)(C)C(NC(=O)c1nn(CCCCCF)c2ccccc12)C(N)=O (stereo not drawn) [5-Fluoro ADB-PINACA],9.8
7,CC(C)(C)C(NC(=O)c1cn(CCCCCF)c2ccccc12)C(N)=O (stereo not drawn) [5-Fluoro ADBICA],4.7
8,O=C(c1cn(CCCCCO)c2ccccc12)C12CC3CC(CC(C3)C1)C2 [AB-001 N-Pentanol],<1
9,CC(C)[C@H](NC(=O)c1nn(CC2CCCCC2)c2ccccc12)C(N)=O [AB-CHMINACA],3.8
10,CC(C)C(NC(=O)c1nn(Cc2ccc(F)cc2)c2ccccc12)C(=O)O (stereo not drawn) [AB-FUBINACA carboxylic acid],4.5
11,CCCCCn1nc(C(=O)NC(C(=O)O)C(C)C)c2ccccc21 (stereo not drawn) [AB-PINACA carboxylic acid],<1
12,CC(C)(C)C(NC(=O)c1nn(CCCCC(=O)O)c2ccccc12)C(N)=O (stereo not drawn) [ADB-PINACA pentanoic acid metabolite],32.8
13,CCCCCn1cc(C(=O)NC(C(N)=O)C(C)(C)C)c2ccccc21 (stereo not drawn) [ADBICA],0.7
14,CC(O)CCCn1nc(C(=O)NC23CC4CC(CC(C4)C2)C3)c2ccccc21 (stereo not drawn) [AKB48 N-(4-hydroxypentyl) metabolite],<1
15,O=C(NC12CC3CC(CC(C3)C1)C2)c1nn(CCCCCO)c2ccccc12 [AKB48 N-(5-hydroxypentyl) metabolite],<1
16,O=C(O)CCCCn1nc(C(=O)NC23CC4CC(CC(C4)C2)C3)c2ccccc21 [AKB48 N-Pentanoic acid metabolite],<1
17,CCCCCn1nc(C(=O)Nc2cccc3ccccc23)c2ccccc21 [MN-18],<1
18,COc1cccc2c(C(=O)N[C@@H]3C(C)(C)[C@@H]4CC[C@@]3(C)C4)cn(CCN3CCOCC3)c12 [MN-25],<1
19,O=C(Oc1cccc2cccnc12)c1cn(CCCCCO)c2ccccc12 [PB-22 N-(5-hydroxypentyl) metabolite],<1
20,O=C(O)CCCCn1cc(C(=O)Oc2cccc3cccnc23)c2ccccc21 [PB-22 N-Pentanoic acid],<1

# Same assay, conditions: negative response
row,SMILES,Concentration of compounds that elicit a negative response at the indicated concentration [ng/mL]
1,O=C(O)c1cn(CCCCCF)c2ccccc12 [5-fluoro PB-22 3-carboxyindole],100
2,O=C(Oc1cccc2cccnc12)c1cn(CCCCCF)c2ccccc12 [5-fluoro PB-22],100
3,O=C(O)CCCCn1cc(C(=O)C23CC4CC(CC(C4)C2)C3)c2ccccc21 [AB001 N-Pentanoic Acid],100
4,O=C(c1ccccc1I)c1cn(CCCCCF)c2ccccc12 [AM-694],100
5,O=C(c1cccc2ccccc12)c1cn(CCCCCF)c2cc(O)ccc12 [AM-2201 6-Hydroxyindole],100
6,O=C(c1cccc2ccccc12)c1cn(CCCCCF)c2ccccc12 [AM-2201],100
7,N#CCCCCn1cc(C(=O)c2cccc3ccccc23)c2ccccc21 [AM-2232],100
8,O=C(O)c1cn(CC2CCCCC2)c2ccccc12 [BB-22 3-Carboxyindole metabolite],100
9,O=C(Oc1cccc2cccnc12)c1cn(CC2CCCCC2)c2ccccc12 [BB-22],100
10,CC1(C)C(C(=O)c2cn(CC3CCOCC3)c3ccccc23)C1(C)C [Hapten A-834735],100
11,COc1ccccc1CC(=O)c1cn(CCCC(C)O)c2ccccc12 (stereo not drawn) [JWH 250 N-(4-hydroxypentyl) metabolite],100
12,CCCCCn1c(C)c(C(=O)c2cccc3ccccc23)c2ccccc21 [JWH-007],100
13,CCCn1c(C)c(C(=O)c2cccc3ccccc23)c2ccccc21 [JWH-015],100
14,CCCCCn1cc(C(=O)c2cccc3ccccc23)c2c(O)cccc21 [JWH-018 4-Hydroxyindole],100
15,CCCCCn1cc(C(=O)c2cccc3ccccc23)c2cc(O)ccc21 [JWH-018 5-Hydroxyindole],100
16,CCCCCn1cc(C(=O)c2cccc3ccccc23)c2ccc(O)cc21 [JWH-018 6-Hydroxyindole],100
17,O=C(c1cccc2ccccc12)c1cn(CCCCCO)c2ccccc12 [JWH-018 N-(5-Hydroxypentyl)],100
18,O=C(O)CCCCn1cc(C(=O)c2cccc3ccccc23)c2ccccc21 [JWH-018 N-Pentanoic acid],100
19,CCCCCn1cc(C(=O)c2cccc3ccccc23)c2ccccc21 [JWH-018],100

row,SMILES,Concentration of compounds that elicit a negative response at the indicated concentration [ng/mL]
1,CCCCCCn1cc(C(=O)c2cccc3ccccc23)c2ccccc21 [JWH-019],100
2,CCCCn1cc(C(=O)c2cccc3ccccc23)c2c(O)cccc21 [JWH-073 4-Hydroxyindole],100
3,CCCCn1cc(C(=O)c2cccc3ccccc23)c2cc(O)ccc21 [JWH-073 5-Hydroxyindole],100
4,O=C(O)CCCn1cc(C(=O)c2cccc3ccccc23)c2ccccc21 [JWH-073 N-Butanoic acid],100
5,O=C(c1cccc2ccccc12)c1cn(CCCCO)c2ccccc12 [JWH-073 N-Butanol],100
6,CCCCn1cc(C(=O)c2cccc3ccccc23)c2ccccc21 [JWH-073],100
7,CCCCCn1cc(C(=O)c2ccc(OC)c3ccccc23)c2ccccc21 [JWH-081],100
8,O=C(c1cccc2ccccc12)c1cn(CCN2CCOCC2)c2ccccc12 [JWH-200],100
9,CCCCCn1cc(C(=O)Cc2ccccc2Cl)c2ccccc21 [JWH-203],100
10,CCCCCn1cc(C(=O)c2ccc(CC)c3ccccc23)c2ccccc21 [JWH-210],100
11,COc1ccccc1CC(=O)c1cn(CCCCCC(=O)O)c2ccccc12 [JWH-250 N-(5-Carboxypentyl)],100
12,COc1ccccc1CC(=O)c1cn(CCCCCO)c2ccccc12 [JWH-250 N-(5-Hydroxypentyl)],100
13,CCCCCn1cc(C(=O)c2ccc(Cl)c3ccccc23)c2ccccc21 [JWH-398],100
14,CN(C)C(=N)N=C(N)N [Metformin HCl],10000
15,CCCCCn1cc(C(=O)Nc2cccc3ccccc23)c2ccccc21 [NNEI],100
16,CCCCCn1cc(C(=O)O)c2ccccc21 [PB-22 3-Carboxyindole metabolite],100
17,CCCCCn1cc(C(=O)Oc2cccc3cccnc23)c2ccccc21 [PB-22],100
18,CC(C)NCC(O)COc1cccc2ccccc12 (stereo not drawn) [Propranolol HCL],10000
